Measured values: patent US9481676B2, “Azepino[4,5-B]indoles and methods of use” (Medivation Technologies, Inc., priority 2008, dated 2016)

Legend:
[1] = molecular target: T1, human recombinant histamine H2 receptor (Homo sapiens, UniProt P25021); assay: Histamine H2 radioligand binding ([125I]Aminopotentidine); details: compound at 1 μM; read-out: Histamine Binding (1 μM) H2, percent inhibition of specific binding
T1 construct: expressed in transfected cells; host or cells: CHO-K1 cells
Description: To evaluate in radioligand binding assays the activity of compounds of the invention, human recombinant histamine H2 receptor expressed in Chinese hamster ovary (CHO) K1 cells (Ruat, M., Proc. Natl. Acad. Sci. USA. 87(5):1658, 1990) in a 50 mM Phosphate buffer, pH 7.4 was used. Compounds of the invention were incubated with 0.1 nM [^125I]Aminopotentidine for 120 min. at 25° C. Non-specific binding was estimated in the presence of 3 μM Tiotidine. Receptor proteins were filtered and washed, the filters were then counted to determine [^125I]Aminopotentidine specifically bound. Compounds were screened at 1 μM or lower, using 1% DMSO as vehicle. Biochemical assay results are presented as the percent inhibition of specific binding in Table 6.

[2] = molecular target: T2, human recombinant serotonin (5-Hydroxytryptamine) 5-HT6 receptor (Homo sapiens, UniProt P50406); assay: Serotonin 5-HT6 radioligand binding ([3H]LSD); details: compound at 1 μM; read-out: Serotonin (1 μM) 5-HT6, percent inhibition of specific binding
T2 construct: expressed in transfected cells; host or cells: human HeLa cells
Description: To evaluate in radioligand binding assays the activity of compounds of the invention, human recombinant serotonin (5-Hydroxytryptamine) 5-HT6 receptor expressed in human HeLa cells (Monsma, F. J. Jr. et al., Mol. Pharmacol. 43:320, 1993) in a modified Tris-HCl buffer (50 mM Tris-HCl, pH 7.4, 150 mM NaCl, 2 mM Ascorbic Acid, 0.001% BSA) was used. Compounds of the invention were incubated with 1.5 nM [3H]Lysergic acid diethylamide (LSD) for 120 min. at 37° C. Non-specific binding was estimated in the presence of 5 μM Serotonin (5-HT). Receptor proteins were filtered and washed, the filters were then counted to determine [3H]LSD specifically bound. Compounds were screened at 1 μM or lower, using 1% DMSO as vehicle. Biochemical assay results are presented as the percent inhibition of specific binding in Table 6.

[3] = molecular target: T3, human recombinant dopamine D2L receptor (Homo sapiens, UniProt P14416); assay: Dopamine D2L radioligand binding ([3H]Spiperone); details: compound at 1 μM; read-out: Dopamine (1 μM) D2L, percent inhibition of specific binding
T3 construct: expressed in transfected cells; host or cells: CHO cells
Description: To evaluate in radioligand binding assays the activity of compounds of the invention, human recombinant dopamine D2L receptor expressed in Chinese hamster ovary (CHO) cells (Grandy, D. K. et al. Proc. Natl. Acad. Sci. USA. 86:9762, 1989; Hayes, G. et al., Mol. Endocrinol. 6:920, 1992) in a modified Tris-HCl buffer (50 mM Tris-HCl, pH 7.4, 1.4 mM Ascorbic Acid, 0.001% BSA, 150 mM NaCl) was used. Compounds of the invention were incubated with 0.16 nM [^3H]Spiperone for 120 min. at 25° C. Non-specific binding was estimated in the presence of 10 μM Haloperidol. Receptor proteins were filtered and washed, the filters were then counted to determine [^3H]Spiperone specifically bound. Compounds were screened at 1 μM or lower, using 1% DMSO as vehicle. Biochemical assay results are presented as the percent inhibition of specific binding in Table 5.

[4] = molecular target: T4, human recombinant serotonin (5-Hydroxytryptamine) 5-HT2A receptor (Homo sapiens, UniProt P28223); assay: Serotonin 5-HT2A radioligand binding ([3H]Ketanserin); details: compound at 1 μM; read-out: Serotonin (1 μM) 5-HT2A, percent inhibition of specific binding
T4 construct: expressed in transfected cells; host or cells: CHO-K1 cells
Description: To evaluate in radioligand binding assays the activity of compounds of the invention, human recombinant serotonin (5-Hydroxytryptamine) 5-HT2A receptor expressed in Chinese hamster ovary (CHO-K1) cells (Bonhaus, D. W. et al. Br. J. Pharmacol. 115:622, 1995; Saucier, C. and Albert, P. R., J. Neurochem. 68:1998, 1997) in a 50 mM Tris-HCl buffer, pH 7.4, was used. Compounds of the invention were incubated with 0.5 nM [^3H]Ketanserin for 60 min. at 25° C. Non-specific binding was estimated in the presence of 1 μM Mianserin. Receptor proteins were filtered and washed, the filters were then counted to determine [^3H]Ketanserin specifically bound. Compounds were screened at 1 μM or lower, using 1% DMSO as vehicle. Biochemical assay results are presented as the percent inhibition of specific binding in Table 6.

[5] = molecular target: T5, human recombinant histamine H1 receptor (Homo sapiens, UniProt P35367); assay: Histamine H1 radioligand binding ([3H]Pyrilamine); details: compound at 1 μM; read-out: Histamine Binding (1 μM) H1, percent inhibition of specific binding
T5 construct: expressed in transfected cells; host or cells: CHO cells
Description: To evaluate in radioligand binding assays the activity of compounds of the invention, human recombinant histamine H1 receptor expressed in Chinese hamster ovary (CHO) cells (De Backer, M. D. et al., Biochem. Biophys. Res. Comm. 197(3):1601, 1993) in a modified Tris-HCl buffer (50 mM Tris-HCl, pH 7.4, 2 mM MgCl2, 100 mM NaCl, 250 mM Sucrose) was used. Compounds of the invention were incubated with 1.2 nM [^3H]Pyrilamine for 180 min. at 25° C. Non-specific binding was estimated in the presence of 1 μM pyrilamine. Receptor proteins were filtered and washed, the filters were then counted to determine [^3H]Pyrilamine specifically bound. Compounds were screened at 1 μM or lower, using 1% DMSO as vehicle. Biochemical assay results are presented as the percent inhibition of specific binding in Table 6.

[6] = molecular target: T6, human recombinant serotonin (5-Hydroxytryptamine) 5-HT2C receptor (Homo sapiens, UniProt P28335); assay: Serotonin 5-HT2C radioligand binding ([3H]Mesulergine); details: compound at 1 μM; read-out: Serotonin (1 μM) 5-HT2C, percent inhibition of specific binding
T6 construct: expressed in transfected cells; host or cells: CHO-K1 cells
T6 sequence (P28335 33-458): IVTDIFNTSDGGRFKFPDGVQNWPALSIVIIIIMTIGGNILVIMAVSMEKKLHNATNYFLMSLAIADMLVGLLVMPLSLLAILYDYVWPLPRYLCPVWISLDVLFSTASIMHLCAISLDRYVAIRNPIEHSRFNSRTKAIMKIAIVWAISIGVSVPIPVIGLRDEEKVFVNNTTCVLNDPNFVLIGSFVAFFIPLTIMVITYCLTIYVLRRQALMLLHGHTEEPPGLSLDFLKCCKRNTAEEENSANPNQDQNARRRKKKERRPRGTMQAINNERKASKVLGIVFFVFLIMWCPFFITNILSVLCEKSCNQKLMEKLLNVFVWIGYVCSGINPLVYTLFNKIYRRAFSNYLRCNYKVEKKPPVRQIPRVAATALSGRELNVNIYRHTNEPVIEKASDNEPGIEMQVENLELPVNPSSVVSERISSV
Description: To evaluate in radioligand binding assays the activity of compounds of the invention, human recombinant serotonin (5-Hydroxytryptamine) 5-HT2C receptor expressed in Chinese hamster ovary (CHO-K1) cells (Wolf, W. A. and Schutz, J. S., J. Neurochem. 69:1449, 1997) in a modified Tris-HCl buffer (50 mM Tris-HCl, pH 7.4, 0.1% Ascorbic Acid, 10 μM Pargyline) was used. Compounds of the invention were incubated with 1 nM [^3H]Mesulergine for 60 min. at 25° C. Non-specific binding was estimated in the presence of 1 μM Mianserin. Receptor proteins were filtered and washed, the filters were then counted to determine [^3H]Mesulergine specifically bound. Compounds were screened at 1 μM or lower, using 1% DMSO as vehicle. Biochemical assay results are presented as the percent inhibition of specific binding in Table 6.

[7] = test system: cells treated with the cell toxin ionomycin; details: cited from earlier work
brain cells (neurons) = details: preclinical models of Alzheimer's disease and Huntington's disease; cited from earlier work
[8] = test system: neurite outgrowth and neurogenesis; details: cited from earlier work
[9] = after treatment with the cell toxin ionomycin

T1 sequence (P25021 whole entry): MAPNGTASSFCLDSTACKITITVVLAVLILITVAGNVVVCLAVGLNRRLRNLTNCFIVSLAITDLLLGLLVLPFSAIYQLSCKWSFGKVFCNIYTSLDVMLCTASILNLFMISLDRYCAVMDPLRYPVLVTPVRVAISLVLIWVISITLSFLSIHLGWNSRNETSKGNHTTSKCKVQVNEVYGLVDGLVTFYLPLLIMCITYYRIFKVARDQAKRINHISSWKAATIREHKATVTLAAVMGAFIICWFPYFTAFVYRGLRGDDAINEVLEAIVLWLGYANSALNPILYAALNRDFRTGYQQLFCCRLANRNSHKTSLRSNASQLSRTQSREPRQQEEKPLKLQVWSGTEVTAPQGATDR
T4 sequence (P28223 whole entry): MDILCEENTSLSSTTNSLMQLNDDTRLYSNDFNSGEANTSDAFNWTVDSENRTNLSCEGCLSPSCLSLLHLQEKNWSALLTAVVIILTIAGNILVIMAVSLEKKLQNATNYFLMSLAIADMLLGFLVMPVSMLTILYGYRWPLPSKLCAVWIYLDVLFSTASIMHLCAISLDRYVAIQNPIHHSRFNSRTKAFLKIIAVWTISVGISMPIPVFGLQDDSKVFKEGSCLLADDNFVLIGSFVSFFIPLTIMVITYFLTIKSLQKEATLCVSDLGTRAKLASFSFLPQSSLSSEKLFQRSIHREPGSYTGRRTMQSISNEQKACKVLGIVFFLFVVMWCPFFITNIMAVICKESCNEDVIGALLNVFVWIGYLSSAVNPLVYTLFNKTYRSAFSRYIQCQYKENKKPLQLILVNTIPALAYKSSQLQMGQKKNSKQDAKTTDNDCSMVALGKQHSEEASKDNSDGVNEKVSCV
T2 sequence (P50406 whole entry): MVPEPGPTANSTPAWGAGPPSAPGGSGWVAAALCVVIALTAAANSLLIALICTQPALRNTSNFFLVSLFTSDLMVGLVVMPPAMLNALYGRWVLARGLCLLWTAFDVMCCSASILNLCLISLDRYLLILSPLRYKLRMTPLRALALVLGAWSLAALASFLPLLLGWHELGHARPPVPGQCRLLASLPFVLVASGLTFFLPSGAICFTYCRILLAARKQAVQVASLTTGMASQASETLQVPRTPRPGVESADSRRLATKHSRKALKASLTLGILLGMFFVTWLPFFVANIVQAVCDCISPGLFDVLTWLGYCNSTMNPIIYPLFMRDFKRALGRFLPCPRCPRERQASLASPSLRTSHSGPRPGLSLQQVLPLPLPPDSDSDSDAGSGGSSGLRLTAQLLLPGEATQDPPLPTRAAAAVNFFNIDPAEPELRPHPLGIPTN
T3 sequence (P14416 whole entry): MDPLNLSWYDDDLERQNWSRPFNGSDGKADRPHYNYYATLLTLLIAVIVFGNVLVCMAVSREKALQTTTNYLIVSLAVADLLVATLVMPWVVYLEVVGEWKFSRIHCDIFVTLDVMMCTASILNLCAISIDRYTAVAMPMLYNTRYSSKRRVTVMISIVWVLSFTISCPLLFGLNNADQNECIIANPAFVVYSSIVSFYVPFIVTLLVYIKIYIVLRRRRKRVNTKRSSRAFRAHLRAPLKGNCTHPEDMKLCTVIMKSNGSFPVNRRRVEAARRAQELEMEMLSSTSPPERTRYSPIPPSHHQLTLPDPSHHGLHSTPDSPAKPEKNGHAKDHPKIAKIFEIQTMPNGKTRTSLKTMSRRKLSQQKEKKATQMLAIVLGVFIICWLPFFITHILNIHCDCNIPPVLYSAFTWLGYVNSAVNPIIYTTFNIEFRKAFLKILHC
T5 sequence (P35367 whole entry): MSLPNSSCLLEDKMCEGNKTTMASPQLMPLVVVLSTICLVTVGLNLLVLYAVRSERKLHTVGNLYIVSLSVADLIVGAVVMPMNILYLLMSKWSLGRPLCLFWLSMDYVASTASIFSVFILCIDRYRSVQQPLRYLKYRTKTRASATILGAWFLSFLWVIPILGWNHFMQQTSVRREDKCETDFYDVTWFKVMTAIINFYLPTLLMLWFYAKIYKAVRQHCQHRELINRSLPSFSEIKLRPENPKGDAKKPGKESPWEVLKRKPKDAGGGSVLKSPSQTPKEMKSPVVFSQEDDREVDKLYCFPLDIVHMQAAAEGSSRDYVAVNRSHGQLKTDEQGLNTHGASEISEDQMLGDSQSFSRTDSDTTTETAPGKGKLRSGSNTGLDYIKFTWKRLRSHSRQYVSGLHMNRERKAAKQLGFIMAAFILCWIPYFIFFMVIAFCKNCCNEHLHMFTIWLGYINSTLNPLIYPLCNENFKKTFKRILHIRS

SMILES | inhibition at 1 µM [1] [%] | inhibition at 1 µM [2] [%] | inhibition at 1 µM [3] [%] | inhibition at 1 µM [4] [%] | inhibition at 1 µM [5] [%] | inhibition at 1 µM [6] [%] | mitochondrial function [7, 9] | number of surviving cells [7, 9] | mitochondrial function of cells ([7]; setting of cellular stress) | death of brain cells (neurons) (brain cells (neurons)) | neurite outgrowth and neurogenesis [8]
C/C(=C\n1c2c(c3cc(C)ccc31)CCN(C)CC2)c1ccncc1 [Compound No. 253, (E)-3,9-dimethyl-6-(2-(pyridin-4-yl)prop-1-enyl)-1,2,3,4,5,6-hexahydroazepino[4,5-b]indole] | 31 | 103 | 55 | 102 | 32 | 101 |  |  |  |  | 
COc1ccc(C#Cn2c3c(c4cc(Cl)ccc42)CCN(C)CC3)cc1F [Compound No. 283, 9-chloro-6-((3-fluoro-4-methoxyphenyl)ethynyl)-3-methyl-1,2,3,4,5,6-hexahydroazepino[4,5-b]indole] | 83 | 40 | 12 | 90 | 12 | 100 |  |  |  |  | 
COc1ccc(C#Cn2c3c(c4cc(C)ccc42)CCN(C)CC3)cc1F [Compound No. 284, 6-((3-fluoro-4-methoxyphenyl)ethynyl)-3,9-dimethyl-1,2,3,4,5,6-hexahydroazepino[4,5-b]indole] | 4 | 42 | 11 | 94 | 11 | 100 |  |  |  |  | 
Cc1ccc2c(c1)c1c(n2CCc2ccc(C)nc2)CCN(C)C1 [Dimebon, dimebon] |  |  |  |  |  |  | improved mitochondrial function | increased the number of surviving cells | improve the mitochondrial function of cells in the setting of cellular stress with very high potency | inhibit the death of brain cells (neurons) | promote neurite outgrowth and neurogenesis
